# Key:
# MiaPaca-2 Xenograft = assay: MIAPaCa-2 xenograft mouse model of pancreatic ductal carcinoma; assay type: in vivo; settings: 120 mg/Kg i.p. twice a week for 6 weeks
# Experimental: (§1) Peptides in their stereoisomer forms were tested in vivo using two mouse models of human pancreatic ductal adenocarcinoma: the PANC-1 Xenograft mouse model and the MiaPaca-2 Xenograft mouse model. Athymic male nude mice (nu/nu) were injected s.c. with cultured […] human pancreatic cancer cells from each different model in the right mice flanks After tumors reached ˜150 mm^3 mice were randomly separated into three groups (n=3/group). Group 1 was treated with vehicle; Group 2 was treated with 120 mg/Kg Gemcitabine (standard established dose); and Group 3 was treated with 25 mg/kg of a combination of four stereoisomer peptides. Mice were dosed by i.p. injection twice a week for 6 weeks.
# In this model the tumors of treated mice grew slowly compared to untreated mice (see FIG. 14A). […] These two human mouse models confirm the therapeutic potency, efficacy, and value of the stereoisomer peptides to treat pancreatic cancer, one of the deadliest cancers for which there are no therapies.
# PANC-1 Xenograft = assay: PANC-1 xenograft mouse model of pancreatic ductal carcinoma; assay type: in vivo; settings: 120 mg/Kg i.p. twice a week for 6 weeks
# Experimental: as §1
smiles,measurement,setting,value
Nc1ccn([C@@H]2O[C@H](CO)[C@@H](O)C2(F)F)c(=O)n1 [Gemcitabine],body weight,MiaPaca-2 Xenograft,lost body weight
same,condition of mice,MiaPaca-2 Xenograft,moribund
same,livers after euthanasia,MiaPaca-2 Xenograft,dark with signs of necrosis
same,condition of mice,PANC-1 Xenograft,moribund

# Source: patent publication US9790286B2, “Stereoisomer peptides, their polymer conjugates, their encapsulation into nanoparticles, and uses thereof for the treatment of diseases caused by abnormal angiogenesis” (priority 2013, dated 2017)
